Patent US20240091162A1, “COMPOSITIONS AND METHODS FOR TREATING DEPRESSION AND ANXIETY” (THE TRUSTEES OF COLUMBIA UNIVERSITY IN THE CITY OF NEW YORK, priority 2021, published 2024)

Experiments:
[1] = in vivo FLX pharmacokinetic study and in vivo imaging of model drug distribution after delivery by microburs; details: after delivery by MBs
[2] = release of nanoparticles / SSRI from microbur and mesoporous silica nanoparticles; format: physicochemical
[3] = in vivo

Row | model drug distribution (in vivo imaging system) [1] | FLX release profile from MB ([2]; MB with different structures) | release of SSRI from MSN ([2]; from a 42 nm-sized MSN) | SMILES | dispersion of FLX in the intestine [3]
1 | selective dispersion of drug in the gut | – | – | O=C1OC2(c3ccc(O)cc3Oc3cc(O)ccc32)c2ccccc21 [Fluorescein] | –
2 | – | sustainable FLX release profile | controlled release | CNCCC(Oc1ccc(C(F)(F)F)cc1)c1ccccc1 (stereo not shown) [Fluoxetine, fluoxetine] | local dispersion of FLX on small intestine epithelium
